In series [1] the test system is hydrogen peroxide induced PAR formation in HeLa cells. The experiment in a line: cells. Particulars: Homo sapiens, read-out: PAR assay (IC50 μM).
Protocol: Cellular activity of PARP-1 inhibitors was assessed by measuring the inhibition of the hydrogen peroxide induced PAR formation in HeLa cells (ECACC). Cellular PAR levels were measured by immunocytochemistry, and quantified using an ArrayScan vTi instrument (Cellomics Thermo Scientific).
Studies were performed as follows: 6000 cells/well were seeded in 96 well plates (Perkin Elmer) in MEM/10% FCS and incubated for 24 hours at 37° C., 5% carbon dioxide. Test compounds were then added at the required concentration for 30 minutes. DNA damage was then induced adding hydrogen peroxide at the concentration of 0.1 mM for 15 minutes. Concentration curves were prepared in MEM/10% FCS from compound stocks in DMSO, and final DMSO concentration was 0.002% (v/v). Duplicate wells for each concentration point were prepared with a typical highest compound concentration of 20 μM and serial dilution 1:3. Plates were dried and fixed adding cold methanol-acetone (70:30) solution for 15 minutes at room temperature, fixing solution was aspired and wells were air dried for 5 minutes and then dehydrated in PBS. Non-specific binding sites were blocked by incubating wells for 30 minutes in PBS containing 5% (w/v) FBS 0.05% tween20. Wells were then incubated for 1 hour at room temperature in PBS containing anti PAR mouse monoclonal antibody (Anti-PAR, Mouse mAb 10H, Tulip Cat N° 1020) diluted 1:200 in blocking solution. After 3 washes in PBS, wells incubated in PBS (w/v) 5% FBS 0.05% Tween20 containing 2 μg/mL Cy2-conjugated Goat anti mouse secondary antibody (Amersham Pharmacia Biotech cat. N° PA 42002) (Absorption maximum 489 nm fluorescence maximum 506 nm) and 1 μg/mL DAPI (Absorption maximum 359 nm fluorescence maximum 461 nm) (4′,6-diamidino-2-phenyindole dilactate) (Sigma cat. N° D9564), a high sensitivity dye for nucleic acid staining. After washing further 3 times in PBS, cellular PAR immunoreactivity was assessed using the ArrayScan vTi instrument, with a Zeiss 10×0.5 N.A. objective, and applying the Cytotoxicity. V3 algorithm (Cellomics/Thermo Fisher) with a XF100 filter. At least 10 fields, corresponding to at least 900 cells, were read for each well.
X is the logarithm of concentration, IC50 is the response; IC50 starts at bottom and goes to top with a sigmoid shape.
The next series has as its target PARP-2 (Homo sapiens (Human), UniProt Q9UGN5). Particulars: probe P1.
For another series, the target named is PARP-1 (Homo sapiens (Human), UniProt P09874).
A short description of series [2]: Pharmacokinetics and oral bioavailability in the mouse. The series is classed as in vivo.
Protocol: A single administration at the dose of 10 mg/kg was given and three male animals for each route were used. […] After capping and vortex mixing, the plate was centrifuged for 15 minutes at 4000 rpm. The supernatant was considered as final extract and injected onto the LC-MS-MS system (UPLC system: Waters Acquity using BEH C18 50*2.1 mm 1.7 μm analytical column; MS instrument: Waters TQD equipped with Electro-Spray source operating in positive ion mode). Lower limit of quantification is 5.0 ng/mL, upper limit of quantification is 5000 ng/mL. Non-compartmental method (linear trapezoidal rule and linear regression analysis of natural log-transformed plasma concentrations vs. time data) was used. Absolute bioavailability (F) was calculated from the ratio of average oral to IV (intravenous) dose-normalized plasma AUC (area under curve) values.
Another series deals with PARP-3 (Homo sapiens (Human), UniProt Q9Y6F1). The following applies: read-out: PARP-3 (DC50 μM); probe P1.
Sequence of PARP-3 (Q9Y6F1 whole entry): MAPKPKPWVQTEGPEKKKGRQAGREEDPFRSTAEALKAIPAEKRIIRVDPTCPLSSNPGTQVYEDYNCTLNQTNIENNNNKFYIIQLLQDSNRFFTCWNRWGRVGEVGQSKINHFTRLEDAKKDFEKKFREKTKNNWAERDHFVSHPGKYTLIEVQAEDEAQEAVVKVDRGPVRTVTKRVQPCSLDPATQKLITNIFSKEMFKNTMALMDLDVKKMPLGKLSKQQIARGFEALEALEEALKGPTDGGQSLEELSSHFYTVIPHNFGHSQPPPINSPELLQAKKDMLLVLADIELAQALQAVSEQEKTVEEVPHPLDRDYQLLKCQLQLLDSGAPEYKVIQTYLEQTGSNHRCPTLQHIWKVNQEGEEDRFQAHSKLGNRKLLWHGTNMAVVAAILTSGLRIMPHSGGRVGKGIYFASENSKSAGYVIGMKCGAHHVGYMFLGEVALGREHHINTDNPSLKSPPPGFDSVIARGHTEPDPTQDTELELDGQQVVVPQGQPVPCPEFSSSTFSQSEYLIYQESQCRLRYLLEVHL
For series [3], the system named is ovarian cancer patients with confirmed BRCA-1 mutations. Particulars: phase I, monotherapy, preliminary data; cited from earlier work.

Sequence of PARP-1 (P09874 whole entry): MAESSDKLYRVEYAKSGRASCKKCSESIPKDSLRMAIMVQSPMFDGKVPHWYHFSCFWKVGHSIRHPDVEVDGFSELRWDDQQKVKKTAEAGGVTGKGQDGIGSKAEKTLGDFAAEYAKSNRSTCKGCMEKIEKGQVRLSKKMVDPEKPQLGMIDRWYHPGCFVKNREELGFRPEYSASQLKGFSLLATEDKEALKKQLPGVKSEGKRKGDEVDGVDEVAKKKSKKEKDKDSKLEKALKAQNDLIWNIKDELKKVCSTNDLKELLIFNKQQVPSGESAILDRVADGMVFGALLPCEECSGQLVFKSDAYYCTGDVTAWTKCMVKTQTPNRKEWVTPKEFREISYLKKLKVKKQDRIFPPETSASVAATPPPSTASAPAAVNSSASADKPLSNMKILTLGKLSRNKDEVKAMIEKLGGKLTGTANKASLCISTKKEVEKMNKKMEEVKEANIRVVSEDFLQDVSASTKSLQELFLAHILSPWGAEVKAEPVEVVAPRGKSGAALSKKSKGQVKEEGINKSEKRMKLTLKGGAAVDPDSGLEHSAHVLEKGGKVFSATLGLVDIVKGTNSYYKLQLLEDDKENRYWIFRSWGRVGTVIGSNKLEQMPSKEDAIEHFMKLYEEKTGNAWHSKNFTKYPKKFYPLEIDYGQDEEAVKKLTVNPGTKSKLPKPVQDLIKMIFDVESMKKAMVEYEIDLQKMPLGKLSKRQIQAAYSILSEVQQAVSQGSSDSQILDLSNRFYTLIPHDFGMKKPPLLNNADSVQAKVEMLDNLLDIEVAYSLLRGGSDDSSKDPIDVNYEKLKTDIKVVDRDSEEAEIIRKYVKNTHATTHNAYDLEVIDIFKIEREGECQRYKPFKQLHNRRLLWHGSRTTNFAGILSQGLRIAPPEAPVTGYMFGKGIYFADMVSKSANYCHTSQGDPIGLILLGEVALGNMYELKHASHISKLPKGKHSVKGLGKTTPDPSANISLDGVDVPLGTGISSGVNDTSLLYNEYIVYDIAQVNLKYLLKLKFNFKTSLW
Sequence of PARP-2 (Q9UGN5 whole entry): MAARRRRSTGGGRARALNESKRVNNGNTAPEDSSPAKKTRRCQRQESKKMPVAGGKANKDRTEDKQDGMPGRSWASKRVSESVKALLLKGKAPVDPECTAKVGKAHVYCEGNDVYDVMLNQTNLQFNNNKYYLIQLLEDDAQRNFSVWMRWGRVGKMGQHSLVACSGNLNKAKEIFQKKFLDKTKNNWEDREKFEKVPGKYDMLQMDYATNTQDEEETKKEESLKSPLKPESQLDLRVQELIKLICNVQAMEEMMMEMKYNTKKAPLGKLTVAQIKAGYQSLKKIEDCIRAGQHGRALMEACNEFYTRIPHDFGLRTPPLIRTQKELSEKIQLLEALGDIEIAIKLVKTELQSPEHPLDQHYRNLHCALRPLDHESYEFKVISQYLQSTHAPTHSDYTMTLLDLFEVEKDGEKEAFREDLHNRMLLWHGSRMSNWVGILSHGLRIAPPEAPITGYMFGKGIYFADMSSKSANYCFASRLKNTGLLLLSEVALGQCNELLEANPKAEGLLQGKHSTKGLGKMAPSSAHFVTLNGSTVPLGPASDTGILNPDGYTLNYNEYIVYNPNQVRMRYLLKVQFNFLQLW
Protocol for PARP-1: (§1) Affinity evaluation of the tested compounds and their selectivity with respect to the different PARP isoforms of interest was assessed in a displacement assay.
(§2) a) providing a reaction mixture containing:
(§3) the PARP protein isoform under investigation,
a compound of formula (IP):
(§4) wherein R11 is hydrogen or a methyl group, B is (CH2)n—NH group wherein n is 2 to 6; m is 0 or 1 and X^− is a counterion, and
serial dilutions of the test compound;
(§5) b) comparing the polarization signal generated in the absence of the test compound with the one generated in the presence of different concentrations of the test compound, and
(§6) c) evaluating the ability of the test compound to displace the compound of formula (IP) as defined above indicated from a decreased fluorescence polarization level.
(§7) The 5H-phenanthridin-6-one-derived probe (IP) was selected for its capability of binding to the PARP proteins, both encompassing full-length native proteins and fragment thereof.
(§8) The polarization signal can be measured, e.g., by a plate reader such as the Saphire2 (Tecan). Data analysis was performed, e.g., by using the Dynafit software. Displacement data were also fitted, e.g., by using Excel spreadsheet (Microsoft Inc. Seattle, USA) to a four parameter logistic model (4PL), or Hill-Slope model. The assay was used to test compounds of the present invention. […] Specific probes of formula (IP) used in the assay are: • P1. 9-Dimethylamino-11,11-dimethyl-1-(3-{methyl-[(6-oxo-5,6-dihydro-phenanthridin-2-ylcarbamoyl)-methyl]-carbamoyl}-propyl)-2,3,4,11-tetrahydro-naphtho[2,3-g]quinolinium trifluoroacetate; • P2. 9-Dimethylamino-11,11-dimethyl-1-[3-(3-{[(6-oxo-5,6-dihydro-phenanthridin-2-ylcarbamoyl)-methyl]-amino}-propylcarbamoyl)-propyl]-2,3,4,11-tetrahydro-naphtho[2,3-g]quinolinium trifluoroacetate; • P3. 9-Dimethylamino-11,11-dimethyl-1-[3-(6-{[(6-oxo-5,6-dihydro-phenanthridin-2-ylcarbamoyl)-methyl]-amino}-hexylcarbamoyl)-propyl]-2,3,4,11-tetrahydro-naphtho[2,3-g]quinolinium trifluoroacetate.
Protocol for PARP-2: as §1, §2, §3
a compound of formula (IP):
as §4
serial dilutions of the test compound;
as §5, §6, §7, §8
Protocol for PARP-3: as §1, §2, §3
a compound of formula (IP):
as §4
serial dilutions of the test compound;
as §5, §6, §7, §8

As for `Cn1c2cccc(C(N)=O)c2c(=O)n1C1CCN(C2CCC(F)(F)CC2)CC1` [Compound 6, 2-[1-(4,4-difluorocyclohexyl)piperidin-4-yl]-1-methyl-3-oxo-2,3-dihydro-1H-indazole-4-carboxamide], in series [1], the IC50 was 0.1 µM. Further, the DC50 at PARP-2 (read-out: PARP-2 (DC50 μM)) is 3.95 µM; at PARP-1 (read-out: PARP-1 (DC50 μM), probe P1, <0.25 = assay sensitivity limit), < 0.25 µM; at PARP-3, 2.34 µM. In addition, the dissociation constant Kd at PARP-2 (read-out: PARP-2 (Kd μM)) is 1.88 µM; at PARP-1 (read-out: PARP-1 (Kd μM), probe P3, <0.01 = assay sensitivity limit) it was < 0.01 µM. Further, in series [2] (male, Balb, Nu/Nu, plasma, IV bolus 10 mg/kg, mean, read-out: CL (IV bolus)), the clearance came out at 52.7 mL/min/kg. In addition, in series [2] (male, Balb, Nu/Nu, plasma, IV bolus 10 mg/kg, mean, read-out: Vdss (IV bolus)), the Vd was found to be 2.9 L/kg. For the same molecule, in series [2] (male, Balb, Nu/Nu, plasma, oral 10 mg/kg, mean), the AUC was found to be 3.87 µM·h. For the same molecule, the half-life in series [2] (male, Balb, Nu/Nu, plasma, oral 10 mg/kg, mean, read-out: T½ (oral) (converted)) is 1.13 h. In addition, in series [2] (oral 10 mg/kg, mean), the “C-max (oral)” value worked out at 3.07 µM. In series [2] (oral vs IV dose-normalized AUC, 10 mg/kg), the “F on AUC” value is 49%.
On to `O=C(c1cc(Cc2n[nH]c(=O)c3ccccc23)ccc1F)N1CCN(C(=O)C2CC2)CC1` [Olaparib], for which the partial responses in series [3] is on record as 4 out of 10.

Source of the values: patent publication US9073893B2, “3-Oxo-2,3-dihydro-1H-indazole-4-carboxamide derivatives as PARP-1 inhibitors” (priority 2011, dated 2015).
